As a reminder, the IC50 is the concentration needed to halve the response being measured.

We go through 13 compounds from patent publication US20220273666A1, “NANOPARTICLE FORMULATION OF BCL-2 INHIBITOR” (Recurium IP Holdings, LLC, priority 2019, published 2022).

The conditions of series [1]: multiple oral administration under fed conditions; cited from earlier work.
For the next series, the system named is NCI-H146 cells. Kind of series: NCI-H146 cell proliferation assay (CellTiter-Glo). The class given is cell-based. To be noted: Homo sapiens, 72 h treatment, read-out: H146 CTG IC50. The procedure: Cell proliferation was measured using the CellTiter-Glo® Luminescent Cell Viability Assay. The assay involved the addition of a single reagent (CellTiter-Glo® Reagent) directly to cells cultured in serum-supplemented medium. RS4;11 (ATCC, CRL-1873) cells were cultured according to ATCC recommendations and were seeded at 50,000 cells per well. NCI-H1963 cells (ATCC CRL-5982) were cultured according to ATCC recommendations and seeded at 12,000 cells per well. NCI-H146 (ATCC, HTB-173) cells were cultured according to ATCC recommendations and were seeded at 20,000 cells per well.
Each compound evaluated was prepared as a DMSO stock solution (10 mM). Compounds were tested in duplicate on each plate, with a 10-point serial dilution curve (1:3 dilution). Compound treatment (1.0 μL for RS4;11 and NCI-H1963, 10 μL for NCI-H146) was added from the compound dilution plate to the cell plate. The highest compound concentration was 10 μM (final), with a 0.1% final DMSO concentration. Plates were then incubated at 37° C., 5% CO2. After 48 h of compound treatment for RS4;11 or 72 h for NCI-H-1963 and NCI-H-146, cell plates were equilibrated at rt for approximately 30 mins. An equi-volume amount of CellTiter-G)® Reagent (40 (L for […] and NC-H1963, 100 μL for NCI-H-146)) was added to each well. Plates were mixed for 2 mins on an orbital shaker to induce cell lysis and then incubated at RT for 10 mins to stabilize the luminescent signal. Luminescence was recorded using a Envision or SpectraMax M5e plate reader according to CellTiter-Glo protocol. IC50 of each compound was calculated using GraphPad Prism by nonlinear regression analysis.
(ATP-based viability assays read luminescence as a measure of living cells.)

For series [2] the following is noted: Phase I/II clinical trials, chronic lymphocytic leukemia; cited from earlier work.
Another series deals with T1, Bcl-XL (Homo sapiens, UniProt Q07817).
T1 construct: host or cells: T7 phage in E. coli host derived from BL21
T1 sequence (Q07817 whole entry): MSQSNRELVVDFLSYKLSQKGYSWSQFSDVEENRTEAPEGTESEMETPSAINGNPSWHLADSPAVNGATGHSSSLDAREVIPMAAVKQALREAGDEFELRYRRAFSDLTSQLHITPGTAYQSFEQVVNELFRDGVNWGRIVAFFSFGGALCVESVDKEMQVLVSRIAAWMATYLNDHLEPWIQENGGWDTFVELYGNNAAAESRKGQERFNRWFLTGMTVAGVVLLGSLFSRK
Description: Bcl-2/Bcl-XL HTRF assay. The class given is binding. To be noted: 3 nM Bcl-XL, 40 nM FAM-Bad peptide. In general terms: In TR-FRET formats the signal depends on donor and acceptor labels being close together.

Another series has as its target Bcl-2 (Homo sapiens, UniProt P10415). Kind of series: Bcl-2/Bcl-XL HTRF assay.

Bcl-2, sequence (P10415 whole entry): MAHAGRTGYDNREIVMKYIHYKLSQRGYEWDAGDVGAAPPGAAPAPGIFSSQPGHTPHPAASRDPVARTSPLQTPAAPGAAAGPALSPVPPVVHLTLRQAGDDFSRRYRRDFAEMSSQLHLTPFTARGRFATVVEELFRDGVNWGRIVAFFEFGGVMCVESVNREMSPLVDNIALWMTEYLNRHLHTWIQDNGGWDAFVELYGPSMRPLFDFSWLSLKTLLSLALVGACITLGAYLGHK

Take `CC1(C)CCC(CN2CCN(c3ccc(C(=O)NS(=O)(=O)c4ccc(NCC5CCOCC5)c([N+](=O)[O-])c4)c(Oc4cnc5[nH]ccc5c4)c3)CC2)=C(c2ccc(Cl)cc2)C1` [ABT-199, venetoclax]: the “time to maximum plasma concentration” value in series [1] is 5 to 8 h.

For the compound `CC1(C)CCC(c2ccc(Cl)cc2)=C(CN2CCN(c3ccc(C(=O)NS(=O)(=O)c4ccc(N[C@H](CCN5CCOCC5)CSc5ccccc5)c(S(=O)(=O)C(F)(F)F)c4)cc3)CC2)C1` [ABT-263, Navitoclax, reference compound], in the series with NCI-H146 cells, the IC50 was not above 100 nM. Further, the “side effect limiting dosage” value in series [2] is reported as “occurrence of thrombocytopenia”.

As to `CN1CCN(CC[C@H](CSc2ccccc2)Nc2ccc(S(=O)(=O)NC(=O)c3ccc(N4CCN(CC5=C(C67CC(C(F)F)(C6)C7)CC(C)(C)CC5)CC4)cc3)cc2S(=O)(=O)C(F)(F)F)CC1` [Example 98, (R)-4-(4-((2-(3-(difluoromethyl)bicyclo[1.1.1]pentan-1-yl)-4,4-dimethylcyclohex-1-en-1-yl)methyl)piperazin-1-yl)-N-((4-((4-(4-methylpiperazin-1-yl)-1-(phenylthio)butan-2-yl)amino)-3-((trifluoromethyl)sulfonyl)phenyl)sulfonyl)benzamide], the values for the IC50 with NCI-H146 cells, on Bcl-XL and against Bcl-2 were 100 to 1000 nM, less than 10 nM and less than 10 nM, respectively.

As to `COC1CCN(CC[C@H](CSc2ccccc2)Nc2ccc(S(=O)(=O)NC(=O)c3ccc(N4CCN(CC5=C(C67CC(C(F)F)(C6)C7)CC(C)(C)CC5)CC4)cc3)cc2S(=O)(=O)C(F)(F)F)CC1` [Example 99, (R)-4-(4-((2-(3-(difluoromethyl)bicyclo[1.1.1]pentan-1-yl)-4,4-dimethylcyclohex-1-en-1-yl)methyl)piperazin-1-yl)-N-((4-((4-(4-methoxypiperidin-1-yl)-1-(phenylthio)butan-2-yl)amino)-3-((trifluoromethyl)sulfonyl)phenyl)sulfonyl)benzamide], the IC50 in the series with NCI-H146 cells is not above 100 nM; against Bcl-XL, less than 10 nM; against Bcl-2, less than 10 nM.

As to `CC1(C)CCC(CN2CCN(c3ccc(C(=O)NS(=O)(=O)c4ccc(N[C@H](CCN5CCCC5)CSc5ccccc5)c(S(=O)(=O)C(F)(F)F)c4)cc3)CC2)=C(C23CC(C(F)F)(C2)C3)C1` [Example 100, (R)-4-(4-((2-(3-(difluoromethyl)bicyclo[1.1.1]pentan-1-yl)-4,4-dimethylcyclohex-1-en-1-yl)methyl)piperazin-1-yl)-N-((4-((1-(phenylthio)-4-(pyrrolidin-1-yl)butan-2-yl)amino)-3-((trifluoromethyl)sulfonyl)phenyl)sulfonyl)benzamide], the IC50 was not above 100 nM in the series on NCI-H146 cells, less than 10 nM at Bcl-XL and less than 10 nM on Bcl-2.

Regarding `COC1(C)CCN(CC[C@H](CSc2ccccc2)Nc2ccc(S(=O)(=O)NC(=O)c3ccc(N4CCN(CC5=C(C67CC(C(F)F)(C6)C7)CC(C)(C)CC5)CC4)cc3)cc2S(=O)(=O)C(F)(F)F)CC1` [Example 101], the IC50 in the series with NCI-H146 cells is not above 100 nM.

Consider `CC1(C)CCC(CN2CCN(c3ccc(C(=O)NS(=O)(=O)c4ccc(N[C@H](CCN5CCO[C@H](CO)C5)CSc5ccccc5)c(S(=O)(=O)C(F)(F)F)c4)cc3)CC2)=C(C23CC(C(F)F)(C2)C3)C1` [Example 102], for which the IC50 in the series with NCI-H146 cells was not above 100 nM.

Turning to `CC1(C)CCC(CN2CCN(c3ccc(C(=O)NS(=O)(=O)c4ccc(N[C@H](CCN5CCO[C@@H](CO)C5)CSc5ccccc5)c(S(=O)(=O)C(F)(F)F)c4)cc3)CC2)=C(C23CC(C(F)F)(C2)C3)C1` [Example 103], the IC50 with NCI-H146 cells was in the range of 100 to 1000 nM.

For the compound `COC(=O)C1(C)CCN(CC[C@H](CSc2ccccc2)Nc2ccc(S(=O)(=O)NC(=O)c3ccc(N4CCN(CC5=C(C67CC(C(F)F)(C6)C7)CC(C)(C)CC5)CC4)cc3)cc2S(=O)(=O)C(F)(F)F)CC1` [Example 104, (R)-Methyl 1-(3-((4-(N-(4-(4-((2-(3-(difluoromethyl)bicyclo[1.1.1]pentan-1-yl)-4,4-dimethylcyclohex-1-en-1-yl)methyl)piperazin-1-yl)benzoyl)sulfamoyl)-2-((trifluoromethyl)sulfonyl)phenyl)amino)-4-(phenylthio)butyl)-4-methylpiperidine-4-carboxylate], the IC50 in the series with NCI-H146 cells was not above 100 nM; on Bcl-XL, less than 10 nM; against Bcl-2 it was less than 10 nM.

As to `CCOC1CCN(CC[C@H](CSc2ccccc2)Nc2ccc(S(=O)(=O)NC(=O)c3ccc(N4CCN(CC5=C(C67CC(C(F)F)(C6)C7)CC(C)(C)CC5)CC4)cc3)cc2S(=O)(=O)C(F)(F)F)CC1` [Example 105, (R)-4-(4-((2-(3-(difluoromethyl)bicyclo[1.1.1]pentan-1-yl)-4,4-dimethylcyclohex-1-en-1-yl)methyl)piperazin-1-yl)-N-((4-((4-(4-ethoxypiperidin-1-yl)-1-(phenylthio)butan-2-yl)amino)-((trifluoromethyl)sulfonyl)phenyl)sulfonyl)benzamide], the IC50 in the series on NCI-H146 cells is not above 100 nM.

With `CC(C)OC1CCN(CC[C@H](CSc2ccccc2)Nc2ccc(S(=O)(=O)NC(=O)c3ccc(N4CCN(CC5=C(C67CC(C(F)F)(C6)C7)CC(C)(C)CC5)CC4)cc3)cc2S(=O)(=O)C(F)(F)F)CC1` [Example 106], in the series with NCI-H146 cells, the concentration for half-maximal inhibition (IC50) was in the range of 100 to 1000 nM.

As for `CC(C)N1CCN(CC[C@H](CSc2ccccc2)Nc2ccc(S(=O)(=O)NC(=O)c3ccc(N4CCN(CC5=C(C67CC(C(F)F)(C6)C7)CC(C)(C)CC5)CC4)cc3)cc2S(=O)(=O)C(F)(F)F)CC1` [Example 107, (R)-4-(4-((2-(3-(difluoromethyl)bicyclo[1.1.1]pentan-1-yl)-4,4-dimethylcyclohex-1-en-1-yl)methyl)piperazin-1-yl)-N-((4-((4-(4-isopropylpiperazin-1-yl)-1-(phenylthio)butan-2-yl)amino)-3-((trifluoromethyl)sulfonyl)phenyl)sulfonyl)benzamide], the IC50 in the series with NCI-H146 cells is not above 100 nM.

Take `CCC12CC(C3=C(CN4CCN(c5ccc(C(=O)NS(=O)(=O)c6ccc(N[C@H](CCN7CCC(OC)CC7)CSc7ccccc7)c(S(=O)(=O)C(F)(F)F)c6)cc5)CC4)CCC(C)(C)C3)(C1)C2` [Example 108, (R)-4-(4-((2-(3-ethylbicyclo[1.1.1]pentan-1-yl)-4,4-dimethylcyclohex-1-en-1-yl)methyl)piperazin-1-yl)-N-((4-((4-(4-methoxypiperidin-1-yl)-1-(phenylthio)butan-2-yl)amino)-3-((triluoromethyl)sulfonyl)phenyl)sulfonyl)benzamide]: the IC50 in the series with NCI-H146 cells was not above 100 nM.
